pEC50, pIC50: −log10 of the molar value. Like-named read-outs stand apart in the source and are kept apart here.
How the values were obtained:
[1] = target: MCL-1/Bim interaction (recombinant human MCL-1 protein, residues 171-327; biotinylated human Bim peptide, residues 51-76) (Homo sapiens (Human), UniProt Q07820); test: MCL-1/Bim Binding AlphaLISA Assay; details: 0.0625 nM 6xHis-Mcl-1 (171-327), 0.0625 nM biotinylated-Bim peptide
In short: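 Protein 0.0625 nM + cpd, 1 h; add biotin-Bim 0.0625 nM, 2 h; acceptor beads 1 h; donor beads 1 h; AlphaScreen read. Buffer 20 mM Hepes pH 7.5, 150 mM NaCl, 1 mM DTT.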

SKBR3 cells = test: SKBR3 Cell Viability Assay (CellTiter Glo); format: cell-based; details: CellTiter Glo luminescence, read-out: MCL-1 CV SKBR3 EC50
In short: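 Viability read as CellTiter Glo luminescence after 72 h of compound exposure at 37° C./5% CO2, using 6,000 SKBR3 cells per well in McCoy 5A with 10% FBS. Percent inhibition scaled between DMSO wells and 10 μM puromycin wells.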

MCL-1/Bim interaction (recombinant human MCL-1 protein, residues 171-327; biotinylated human Bim peptide, residues 51-76), sequence (Q07820 171-327): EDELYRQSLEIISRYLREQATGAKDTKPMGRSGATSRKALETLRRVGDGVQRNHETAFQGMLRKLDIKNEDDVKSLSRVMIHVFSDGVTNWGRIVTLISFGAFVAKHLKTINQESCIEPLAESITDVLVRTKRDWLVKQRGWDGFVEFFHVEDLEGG

SMILES	pIC50 [1]	pEC50 (SKBR3 cells; Homo sapiens, SK-BR-3, 72 h)	pEC50 (SKBR3 cells; 72 hours)
CO[C@H]1/C=C/CCC[S@@](=O)(NC(=O)CCc2ccccc2C(F)(F)F)=NC(=O)c2ccc3c(c2)N(C[C@@H]2CC[C@H]21)C[C@@]1(CCCc2cc(Cl)ccc21)CO3 [Example 87]	8.49	5.00	
CO[C@H]1/C=C/C[C@H](C)C[S@@](=O)(NC(=O)N[C@@H]2C[C@H]2c2cnn(C)c2)=NC(=O)c2ccc3c(c2)N(C[C@@H]2CC[C@H]21)C[C@@]1(CCCc2cc(Cl)ccc21)CO3 (single isomer, unassigned) [Example 183]	9.88		6.71
COc1ncc(C(=O)N[S@@]2(=O)=NC(=O)c3ccc4c(c3)N(C[C@@H]3CC[C@H]3[C@@H](OC)/C=C/C[C@H](C)C2)C[C@@]2(CCCc3cc(Cl)ccc32)CO4)cn1 [Example 273]	10.11	7.09	
COc1nn(C)cc1C(=O)N[S@@]1(=O)=NC(=O)c2ccc3c(c2)N(C[C@@H]2CC[C@H]2[C@@H](O)CCC[C@H](C)[C@H]1C)C[C@@]1(CCCc2cc(Cl)ccc21)CO3 [Example 290]	10.52	7.58	
CO[C@H]1/C=C/C[C@H](C)C[S@@](=O)(NC(=O)C2Cc3cccnc3C2)=NC(=O)c2ccc3c(c2)N(C[C@@H]2CC[C@H]21)C[C@@]1(CCCc2cc(Cl)ccc21)CO3 (stereo partly drawn) [Example 412]	10.14	6.75	
CO[C@H]1/C=C/C[C@H](C)[C@@H](C)[S@@](=O)(NC(=O)c2cc3n(c2)CCOC3)=NC(=O)c2ccc3c(c2)N(C[C@@H]2CC[C@H]21)C[C@@]1(CCCc2cc(Cl)ccc21)CO3 [Example 137]	9.31	6.98	
CO[C@H]1/C=C/C[C@H](C)C[S@@](=O)(NC(=O)c2cc3c(s2)CCOC3)=NC(=O)c2ccc3c(c2)N(C[C@@H]2CC[C@H]21)C[C@@]1(CCCc2cc(Cl)ccc21)CO3 [Example 429]	9.89	6.58	
CO[C@H]1/C=C/C[C@H](C)C[S@@](=O)(NC(=O)[C@H]2C[C@H](OC)C2)=NC(=O)c2ccc3c(c2)N(C[C@@H]2CC[C@H]21)C[C@@]1(CCCc2cc(Cl)ccc21)CO3 [Example 128]	10.17	7.02	
CO[C@H]1/C=C/C[C@H](C)[C@@H](C)[S@@](=O)(NC(=O)CO[C@H]2CCOC[C@H]2F)=NC(=O)c2ccc3c(c2)N(C[C@@H]2CC[C@H]21)C[C@@]1(CCCc2cc(Cl)ccc21)CO3 [Example 133]	10.29	6.89	
COc1cn(C)nc1C(=O)O[C@H]1/C=C/[C@H](OC)[C@@H]2CC[C@H]2CN2C[C@@]3(CCCc4cc(Cl)ccc43)COc3ccc(cc32)C(=O)N=[S@](=O)(NC(=O)c2cn(C)nc2OC)CC1 [Example 391]	9.15		5.34
CO[C@H]1/C=C/CCC[S@@](=O)(NC(=O)CCn2cc(Cl)cn2)=NC(=O)c2ccc3c(c2)N(C[C@@H]2CC[C@H]21)C[C@@]1(CCCc2cc(Cl)ccc21)CO3 [Example 55]	9.70	6.16	
COC[C@@H]1Cn2cc(C(=O)N[S@@]3(=O)=NC(=O)c4ccc5c(c4)N(C[C@@H]4CC[C@H]4[C@@H](O)/C=C/C[C@H](C)C3)C[C@@]3(CCCc4cc(Cl)ccc43)CO5)cc2CO1 [Example 326]	10.12	7.28	

— US10703733B2, “MCL-1 inhibitors” (Gilead Sciences, Inc., priority 2018, dated 2020)
